In PMC8307831, “Preparation of Monoclonal Antibody and Development of Indirect Competitive Enzyme-Linked Immunosorbent Assay and Fluorescence-Linked Immunosorbent Assay for Detecting 3-Amino-5-methylmorpholino-2-oxazolidinone (AMOZ) in Edible Animal Tissue” (Molecules, 2021):
Converted amounts (≈) assume the structure as drawn.

Assays:
[1] = tested on: mAb 5C10/3A8; experiment: indirect competitive ELISA (ic-ELISA) with CPAMOZ-OVA coating antigen; assay type: binding, mouse; details: for Cross-Reactivity: (IC50 of 2-NP-AMOZ / IC50 of compound tested) x 100%, 2-NP-AMOZ set to 100%; for IC50: mAb 5C10/3A8, competition with coating antigen CPAMOZ-OVA
Method: To carry out 2-NP-AMOZ ic-ELISA, 96-well plates were first coated with 100 μL of CPAMOZ-OVA in 50 mM of carbonate buffer solution (pH = 9.6) overnight at 4 °C. […] The plates were washed again three times, after which 50 μL of different concentrations of 2-NP-AMOZ analytes and 50 μL of the obtained mAb were added into each well, incubated at 37 °C for 1 h, and the plates were washed three times with the PBST. Subsequently, 100 μL of horseradish peroxidase-labeled goat anti-mouse IgG (1:10,000 dilution) was added to the wells and incubated at 37 °C for 1 h. This was followed by a washing step of three washes with PBST solution, after which 100 μL of substrate solution was added to each well and incubated for 15 min in darkness. The reaction was stopped by adding 50 μL/well of 2 M of H2SO4. The absorbance at 450 nm was measured on a Tecan Sunrise 2.5 microplate reader (SUNRISE, Austria). A calibration curve was constructed by plotting (B/B0) × 100% vs. log C, where B and B0 represent the absorbance of the analyte at the known concentrates (standards) and at zero concentration of the analyte, respectively.
The extent of cross-reactivity was evaluated by determining IC50 values using an ic-ELISA as described above. […] The concentration of the standard solutions of the compounds was set from 0.01 to 1000 ng/mL.

[2] = tested on: monoclonal antibodies; design: method as in not given; details: published mAb-based homologous ic-ELISAs and fluoroimmunoassay; range over the literature; ref not given; cited from earlier work
[3] = tested on: mAb 5C10/3A8; experiment: QD-based fluorescence-linked immunosorbent assay (FLISA); assay type: binding; details: 655 nm QDs-conjugated goat anti-mouse IgG
Method: The procedures for FLISA and ic-ELISA were identical before the secondary antibody was added. More specifically, after washing with PBST for three times, 100 μL of 655 nm QDs-conjugated goat anti-mouse IgG (1:10,000 dilution) was added to each well and incubated at 37 °C for 45 min. After three washes with PBST, a SpectraMax M2e Microplate Reader (Molecular Devices, San Jose, CA, USA) was used to measure the fluorescence signals from samples with excitation/emission at 360/655 nm. The fluorescence intensities were identified as B0 and B for the control and testing sample. The standard curve was established by plotting the form (B/B0) 100% against the 2-NP-AMOZ concentration.

| IC50 [1] | IC50 [3] | Compound | Cross-Reactivity [1] | IC50 [2] |
| --- | --- | --- | --- | --- |
| >1 µg/mL | – | O=C1CN(/N=C/c2ccc([N+](=O)[O-])o2)C(=O)N1 [Nitrofurantoin, nitrofurantoin] | <0.01% | – |
| 9e-05 µg/mL (≈ 0.00027 µM) | – | O=C(O)c1ccc(/C=N/N2CC(CN3CCOCC3)OC2=O)cc1 (centres unmarked) [CPAMOZ, carboxyphenyl AMOZ] | 122.2% | – |
| >1 µg/mL | – | NC(=O)N/N=C/c1ccc([N+](=O)[O-])o1 [Nitrofurazone, nitrofurazone] | <0.01% | – |
| 0.00103 µg/mL (≈ 0.00512 µM) | – | NN1CC(CN2CCOCC2)OC1=O (centres unmarked) [AMOZ, 3-amino-5-morpholinomethyl-2-oxazolidinone] | 10.7% | 0.00115 to 0.00533 µg/mL |
| 0.00124 µg/mL (≈ 0.00382 µM) | – | O=C1OC(CN2CCOCC2)CN1/N=C/c1ccc([N+](=O)[O-])o1 (centres unmarked) [Furaltadone, furaltadone] | 8.9% | – |
| >1 µg/mL | – | NN1CCOC1=O [AOZ, 3-amino-2-oxazolidinone] | <0.01% | – |

Second part, the compound before the results:

| Compound | IC50 [1] | IC50 [3] | Cross-Reactivity [1] | IC50 [2] |
| --- | --- | --- | --- | --- |
| O=Cc1ccc(C(=O)O)cc1 [4-CBA, 4-carboxybenzaldehyle] | >1 µg/mL | – | <0.01% | – |
| O=C1OCCN1/N=C/c1ccccc1[N+](=O)[O-] [2-NP-AOZ] | >1 µg/mL | – | <0.01% | – |
| NN1CC(=O)NC1=O [AHD, 1-aminohydantoin] | >1 µg/mL | – | <0.01% | – |
| O=C1CN(/N=C/c2ccccc2[N+](=O)[O-])C(=O)N1 [2-NP-AHD] | >1 µg/mL | – | <0.01% | – |
| O=Cc1ccccc1[N+](=O)[O-] [2-NBA, 2-nitrobenzaldehyde] | >1 µg/mL | – | <0.01% | – |
| O=C1OC(CN2CCOCC2)CN1/N=C/c1ccccc1[N+](=O)[O-] (centres unmarked) [2-NP-AMOZ] | 0.00011 µg/mL (≈ 0.000329 µM) | 0.09 ng/mL (≈ 0.000269 µM) | 100% | 0.00014 to 0.0043 µg/mL |
| NNC(N)=O [SEM, semicarbazide] | >1 µg/mL | – | <0.01% | – |
